# Laboratory results: patent US11484529B2, “Desmethylanethole trithione derivatives for the treatment of diseases linked to mitochondrial reactive oxygen species (ROS) production” (OP2 Drugs, priority 2017, dated 2022)
# Like-named read-outs stand apart in the source and are kept apart here.
# Legend:
# H460 cells = experiment: Oxygen consumption of resting carcinoma cells (oxygraphy); type: cell-based, human; details: 0 to 40 μM
# Experimental: Human non-small cell carcinoma cell line H460 and A549 were obtained from ATCC. Cells were cultured in growth medium consisting of DMEM (GIBCO), 10% FBS (GIBCO) and 100 units of penicillin and 100 μg/mL streptomycin (GIBCO). The cells were maintained in either 75-cm^2 T-flasks or 175-cm^2 T-flasks (BD Biosciences) in an incubator (model 3100 series, Forma Scientific, Marietta, Ohio) controlled at 37° C., 95% humidity, and 5% CO2. Cell culture medium was refreshed every other day. Every 2 to 3 days, H460 and A549 cultures were detached from the flasks using a 0.25% trypsin solution (Gibco) and subcultured. All cultures were maintained at 80-90% confluence at the time of subculture.
# The effects of AOX (0 to 40 μM) were assessed on carcinoma cells using the classical oxygraphic approach and compared to the effects of sister molecule AOL.
# Oxygen consumption of H460 resting cells has been measured continuously and increasing concentrations of AOL and AOX (0 to 40 μM) have been injected to the preparation (FIG. 24).
# site IQ of complex I = site IQ of complex I (Rattus norvegicus, UniProt A6K8N6+P03889+Q641Y2); experiment: Mitochondrial ROS/H2O2 production (Amplex Red/HRP), glutamate+malate+succinate with ATR, no inhibitor; type: biochemical
# Experimental: Rates of ROS/H2O2 production from heart mitochondria were assessed through the oxidation of the colorless, non-fluorescent indicator Amplex Red in the presence of exogenous horseradish peroxidase (HRP, EC 1.11.1.7, Sigma). H2O2 reacts with Amplex Red in a 1:1 stoichiometry, yielding the fluorescent compound resorufin (excitation: 560 nm; emission: 585 nm) which is stable once formed. Fluorescence was measured continuously with a spectro-fluorometer equipped with temperature control and stirring (SAFAS Xenius, Monaco). Isolated mitochondria (0.1 mg/mL) were incubated in the same experimental buffer than previously, supplemented with 15 μM Amplex Red and 10 μg/mL HRP. Glutamate (5 mM)/malate (2.5 mM) together with succinate (5 mM) were used as complex I and complex II substrates, respectively. Experiments were conducted under non-phosphorylating conditions in the presence of 15 μM atractyloside, i.e., under state IV conditions where […]. Afterwards, rotenone (1.5 μM), antimycin A (2 μM), and myxothiazol (0.2 μM) were sequentially added to inhibit the redox centers within the electron transfer chain (FIG. 2), namely sites IQ, IF (with rotenone), IIIQi (with antimycin A) and IIIQO (with myxothiazol). Assay was finally calibrated with known amounts of H2O2 (steps of 300 nM), in the presence of all relevant compounds, including AOL. The control test of the absence of effect of AOL on the Amplex Red assay itself and NAD(P)H oxidase ROS/H2O2 production was carried out in the absence of cardiac mitochondria and the presence of NAD(P)H oxidase (EC 1.6.3.3, 5 mU/mL, Sigma) and NADH (100 μM) solutions.
# Rates of ROS/H2O2 production from heart mitochondria were assessed through the oxidation of the colorless, non-fluorescent indicator Amplex Red in the presence of exogenous horseradish peroxidase (HRP, EC 1.11.1.7, Sigma). H2O2 reacts with Amplex Red in a 1:1 stoichiometry, yielding the fluorescent compound resorufin (excitation: 560 nm; emission: 585 nm) which is stable once formed. Fluorescence was measured continuously with a spectro-fluorometer equipped with temperature control and stirring (SAFAS Xenius, Monaco).
# Isolated mitochondria (0.1 mg/mL) were incubated in the same experimental buffer than previously, supplemented with 15 μM Amplex Red and 10 μg/mL HRP. Glutamate (5 mM)/malate (2.5 mM) together with succinate (5 mM) were used as complex I and complex II substrates, respectively. Experiments were conducted under non-phosphorylating conditions in the presence of 15 μM atractyloside. Afterwards, rotenone (1.5 μM), antimycin A (2 μM), and myxothiazol (0.2 μM) were sequentially added to inhibit the redox centers within the electron transfer chain (see FIG. 2), namely sites IQ, IF (with rotenone), IIIQi (with antimycin A) and IIIQO (with myxothiazol). Assay was finally calibrated with known amounts of H2O2 (steps of 300 nM), in the presence of all relevant compounds, including AOX. The control test of the absence of effect of AOL, AOX and Oltipraz on the Amplex Red assay itself and NAD(P)H oxidase […] production was carried out in the absence of cardiac mitochondria and the presence of NAD(P)H oxidase (EC 1.6.3.3, 5 mU/mL, Sigma) and NADH (100 μM) solutions.
# intrapulmonary arteries = experiment: Isometric contraction of intrapulmonary arteries induced by serotonin or endothelin
# Experimental: Intrapulmonary arteries of the first order (IPA1) were divided into short tubular segments with an external diameter of 1.5-2 mm and used for isometric contraction measurement. Arterial rings were mounted in isolated organ bath systems, containing Krebs solution (containing 118.4 mM NaCl, 4.7 mM KCl, 1.2 mM MgSO4, 25 mM NaHCO3, 1.2 mM KH2PO4, 2.5 mM CaCl2) and 11.1 mM D-glucose, pH 7.4 adjusted with NaOH) at 37° C. and bubbled continuously with […]. An initial load of 0.8 to 1 g was applied to arterial rings. Tissues were allowed to equilibrate for 1 hour in Kreb's solution and washed out every 15 minutes. A high KCl solution (80 mM) was applied in order to obtain a reference contraction used to normalize subsequent contractile responses.
# Contractile responses to different agonists were then tested by constructing a cumulative concentration-response curve (CCRC) to serotonin (5HT, 10^−4 to 10^−[…]) or endothelin (ET-1, 10^−7 to 10^−10 M). When indicated, AOL or AOX were preincubated during 30 minutes, and then CCRC to agonist was performed in the presence of the drug. High potassium solutions were obtained by substituting an equimolar amount of KCl for NaCl from Kreb's solution. Endothelial function was tested on each ring by examining the relaxation induced by 10 μM carbamylcholine on 0.3 μM Phe-induced preconstricted pulmonary arterial rings. Passive and active mechanical properties were assessed using transducer systems, coupled to IOX software (EMKA Technologies, Paris, France) in order to facilitate data acquisition and analysis.
# Sequence of site IQ of complex I (A6K8N6 entry or part of it): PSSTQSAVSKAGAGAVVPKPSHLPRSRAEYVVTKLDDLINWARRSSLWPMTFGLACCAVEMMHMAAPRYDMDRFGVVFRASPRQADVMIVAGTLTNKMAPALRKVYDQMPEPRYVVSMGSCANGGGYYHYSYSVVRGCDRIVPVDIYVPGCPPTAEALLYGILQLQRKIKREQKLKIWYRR
# Sequence of site IQ of complex I (P03889 whole entry): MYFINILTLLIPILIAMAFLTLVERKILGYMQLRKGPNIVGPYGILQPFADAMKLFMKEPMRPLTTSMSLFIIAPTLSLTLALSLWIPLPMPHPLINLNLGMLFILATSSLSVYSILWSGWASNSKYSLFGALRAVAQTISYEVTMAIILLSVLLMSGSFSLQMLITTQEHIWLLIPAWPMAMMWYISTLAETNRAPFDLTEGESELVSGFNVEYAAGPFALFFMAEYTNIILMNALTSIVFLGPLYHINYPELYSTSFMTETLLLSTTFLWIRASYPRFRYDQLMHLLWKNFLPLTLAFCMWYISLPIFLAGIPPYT
# Sequence of site IQ of complex I (Q641Y2 34-463): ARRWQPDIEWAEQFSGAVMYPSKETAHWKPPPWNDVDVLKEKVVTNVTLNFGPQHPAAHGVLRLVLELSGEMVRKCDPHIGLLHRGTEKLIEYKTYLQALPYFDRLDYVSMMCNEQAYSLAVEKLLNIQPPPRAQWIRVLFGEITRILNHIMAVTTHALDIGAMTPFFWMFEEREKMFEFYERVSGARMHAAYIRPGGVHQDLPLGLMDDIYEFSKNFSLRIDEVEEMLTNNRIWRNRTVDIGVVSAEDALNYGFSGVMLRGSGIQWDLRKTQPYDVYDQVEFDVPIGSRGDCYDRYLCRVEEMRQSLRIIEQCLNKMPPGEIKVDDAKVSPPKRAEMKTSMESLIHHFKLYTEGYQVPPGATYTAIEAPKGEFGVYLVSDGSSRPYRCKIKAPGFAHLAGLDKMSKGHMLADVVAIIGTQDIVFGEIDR
SMILES,rate of oxygen consumption by H460 cells (H460 cells),"lowest concentration showing an inhibitory effect on ROS production by site IQ (site IQ of complex I; AOX 2.5 to 20 μM, glutamate, malate, succinate, ATR) [µM]","IC50 (site IQ of complex I; AOX 2.5 to 20 μM, glutamate, malate, succinate, ATR, read-out: estimated IC50 on ROS production by site IQ) [µM]",Hill coefficient (site IQ of complex I; fit of FIG. 21),Maximum (fit parameter) (site IQ of complex I; fit of FIG. 21),Minimum (fit parameter) (site IQ of complex I; fit of FIG. 21),"IC50 (site IQ of complex I; fit of FIG. 21, read-out: IC50 (fit parameter)) [µM]",response of serotonin- and endothelin-induced contractions compared with AOL (intrapulmonary arteries; AOX at 10 μM),serotonin-induced contractions (intrapulmonary arteries; higher concentrations of AOX (above 10 μM)),"decrease of ROS/H2O2 production measured in the absence of inhibitor (site IQ of complex I; AOL 5 to 80 μM, glutamate, malate, succinate, only ATR present)",endothelin-induced contractions (intrapulmonary arteries; AOL preincubated 30 minutes),serotonin-induced contractions (intrapulmonary arteries; AOL preincubated 30 minutes)
"Oc1ccc(-c2cc(=S)ss2)cc1 [AOX, 5-(4-hydroxyphenyl)-3H-1,2-dithiole-3-thione]",no change in the rate of oxygen consumption,2.5,~9.5,2.616±0.5706,554.045±19.73,−72.5272±68.64,9.47 ± 1.02,same pattern of response,contractions induced with 10^−4 M of serotonin could be relaxed,–,–,–
"COc1ccc(-c2cc(=S)ss2)cc1 [AOL, 5-(4-methoxyphenyl)-3H-1,2-dithiole-3-thione]",no change in the rate of oxygen consumption,–,–,–,–,–,–,–,–,approximately 80%,no effect on endothelin-induced contractions,could relax contractions induced with up to 5·10^−5 M of serotonin
